Experimental findings from US20260176320A1, “MODULATORS OF G-PROTEIN COUPLED RECEPTORS” (priority 2018, published 2026) are described below.

Like-named read-outs stand apart in the source and are kept apart here.

In experiment [1] the target is T1, GIP-R (Homo sapiens, UniProt P48546).
T1 sequence (P48546 22-466): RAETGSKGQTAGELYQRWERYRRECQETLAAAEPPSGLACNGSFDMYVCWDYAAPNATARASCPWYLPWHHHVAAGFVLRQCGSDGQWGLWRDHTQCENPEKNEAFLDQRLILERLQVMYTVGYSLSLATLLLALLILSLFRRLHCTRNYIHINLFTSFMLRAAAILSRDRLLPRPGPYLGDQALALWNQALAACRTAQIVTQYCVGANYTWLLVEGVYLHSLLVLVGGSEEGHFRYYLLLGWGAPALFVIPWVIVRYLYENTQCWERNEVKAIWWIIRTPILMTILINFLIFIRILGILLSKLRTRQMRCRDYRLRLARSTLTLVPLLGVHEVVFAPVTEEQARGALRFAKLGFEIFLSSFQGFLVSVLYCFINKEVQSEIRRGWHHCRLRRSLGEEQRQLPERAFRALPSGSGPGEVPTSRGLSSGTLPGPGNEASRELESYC
Briefly: HitHunter cAMP assay (GIP-R). Particulars: cAMP; for Emax: read-out: (Emax) GIP-R. It is filed as cell-based. The procedure, abridged:
(§1)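 Luminescent readout of cAMP by enzyme-fragment immunocompetition gave agonist concentration-response data. Cells (10,000/well) sat in HBSS buffer containing IBMX 625 μM, HEPES 10 mM and BSA 0.2%, exposed to agonist for 30 min at room temperature.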
A general note: Changes in cAMP serve as a functional read-out for many G protein-coupled receptors.

The target of experiment [2] is GLP-1R (Homo sapiens, UniProt P43220). Briefly: HitHunter cAMP assay (GLP-1R). It is filed as cell-based. Particulars: cAMP; for Emax: read-out: (Emax) GLP-1R. The method, boiled down: as §1
Sequence of GLP-1R (P43220 24-463): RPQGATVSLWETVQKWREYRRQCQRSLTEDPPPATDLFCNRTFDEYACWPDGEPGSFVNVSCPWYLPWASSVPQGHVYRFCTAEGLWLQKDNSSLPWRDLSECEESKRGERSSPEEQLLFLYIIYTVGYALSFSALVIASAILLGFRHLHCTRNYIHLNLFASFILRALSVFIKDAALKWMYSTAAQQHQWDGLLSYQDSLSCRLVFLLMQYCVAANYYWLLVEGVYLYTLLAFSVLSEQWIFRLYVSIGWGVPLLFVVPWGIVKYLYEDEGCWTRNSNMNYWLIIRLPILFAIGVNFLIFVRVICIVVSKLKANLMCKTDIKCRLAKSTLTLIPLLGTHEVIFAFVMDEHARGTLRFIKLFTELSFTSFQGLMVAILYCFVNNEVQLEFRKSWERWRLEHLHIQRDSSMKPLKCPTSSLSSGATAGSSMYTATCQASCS

As a reminder, the Emax is the size of the effect at its maximum, as opposed to the concentration needed. Turning to `CC[C@H](C)[C@H](NC(=O)[C@H](CO)NC(=O)[C@H](Cc1ccc(O)cc1)NC(=O)[C@H](CC(=O)O)NC(=O)[C@H](CO)NC(=O)[C@@H](NC(=O)[C@H](Cc1ccccc1)NC(=O)[C@@H](NC(=O)CNC(=O)[C@H](CCC(=O)O)NC(=O)CSCC(=O)NCCN1C(=O)c2ccc([N+](=O)[O-])cc2C1=O)[C@@H](C)O)[C@@H](C)O)C(=O)N[C@@H](Cc1ccc(O)cc1)C(=O)N[C@@H](CC(C)C)C(=O)N[C@@H](CC(=O)O)C(=O)N[C@@H](CCCCN)C(=O)N[C@@H](CCC(N)=O)C(=O)N[C@@H](C)C(=O)N[C@@H](C)C(=O)NC(C)(C)C(=O)N[C@@H](CCC(=O)O)C(=O)N[C@@H](Cc1ccccc1)C(=O)N[C@H](C(=O)N[C@@H](CC(N)=O)C(=O)N[C@@H](Cc1c[nH]c2ccccc12)C(=O)N[C@@H](CC(C)C)C(=O)N[C@@H](CC(C)C)C(=O)N[C@@H](C)C(=O)NCC(=O)NCC(=O)N1CCC[C@H]1C(=O)N[C@@H](CO)C(=O)N[C@@H](CO)C(=O)NCC(=O)N[C@@H](C)C(=O)N1CCC[C@H]1C(=O)N1CCC[C@H]1C(=O)N1CCC[C@H]1C(=O)N[C@@H](CO)C(=O)N[C@@H](CCCCN)C(N)=O)C(C)C` [Compound 107], the EC50 was 0.1 to 1 nM in experiment [1] (EC50 GIP-R/nM, Table 3); 0.1 to 1 nM in experiment [1] (EC50 GIP-R/nM, Table 3A); 10 to 100 nM in experiment [2] (EC50 GLP-1R/nM, Table 3); 10 to 100 nM in experiment [2] (EC50 GLP-1R/nM, Table 3A). The Emax in experiment [1] (Table 3) was 124%; in experiment [1] (Table 3A) it was 124%; in experiment [2] (Table 3), 57%; in experiment [2] (Table 3A), 57%.
For the compound `CC[C@H](C)[C@H](NC(=O)[C@H](CO)NC(=O)[C@H](Cc1ccc(O)cc1)NC(=O)[C@H](CC(=O)O)NC(=O)[C@H](CO)NC(=O)[C@@H](NC(=O)[C@H](Cc1ccccc1)NC(=O)[C@@H](NC(=O)CNC(=O)[C@H](CCC(=O)O)NC(=O)CSCC(=O)NCCN1C(=O)c2cccc([N+](=O)[O-])c2C1=O)[C@@H](C)O)[C@@H](C)O)C(=O)N[C@@H](Cc1ccc(O)cc1)C(=O)N[C@@H](CC(C)C)C(=O)N[C@@H](CC(=O)O)C(=O)N[C@@H](CCCCN)C(=O)N[C@@H](CCC(N)=O)C(=O)N[C@@H](C)C(=O)N[C@@H](C)C(=O)NC(C)(C)C(=O)N[C@@H](CCC(=O)O)C(=O)N[C@@H](Cc1ccccc1)C(=O)N[C@H](C(=O)N[C@@H](CC(N)=O)C(=O)N[C@@H](Cc1c[nH]c2ccccc12)C(=O)N[C@@H](CC(C)C)C(=O)N[C@@H](CC(C)C)C(=O)N[C@@H](C)C(=O)NCC(=O)NCC(=O)N1CCC[C@H]1C(=O)N[C@@H](CO)C(=O)N[C@@H](CO)C(=O)NCC(=O)N[C@@H](C)C(=O)N1CCC[C@H]1C(=O)N1CCC[C@H]1C(=O)N1CCC[C@H]1C(=O)N[C@@H](CO)C(=O)N[C@@H](CCCCN)C(N)=O)C(C)C` [Compound 108], the EC50 in experiment [1] (EC50 GIP-R/nM, Table 3) was 10 to 100 nM; in experiment [1] (EC50 GIP-R/nM, Table 3A), 10 to 100 nM; in experiment [2] (EC50 GLP-1R/nM, Table 3), above 1000 nM; in experiment [2] (EC50 GLP-1R/nM, Table 3A), above 1000 nM. The Emax in experiment [1] (Table 3) and in experiment [1] (Table 3A) was 69% in each case. Besides, the Emax at 1 µM stood at 18% in experiment [2] (read-out: (Emax) GLP-1R at 1 μM, Table 3) and 18% in experiment [2] (read-out: (Emax) GLP-1R at 1 μM, Table 3A).
Take `CC[C@H](C)[C@H](NC(=O)[C@H](CO)NC(=O)[C@H](Cc1ccc(O)cc1)NC(=O)[C@H](CC(=O)O)NC(=O)[C@H](CO)NC(=O)[C@@H](NC(=O)[C@H](Cc1ccccc1)NC(=O)[C@@H](NC(=O)CNC(=O)[C@H](CCC(=O)O)NC(=O)CSCC(=O)NCCN1C(=O)[C@H]2C[C@H]2C1=O)[C@@H](C)O)[C@@H](C)O)C(=O)N[C@@H](Cc1ccc(O)cc1)C(=O)N[C@@H](CC(C)C)C(=O)N[C@@H](CC(=O)O)C(=O)N[C@@H](CCCCN)C(=O)N[C@@H](CCC(N)=O)C(=O)N[C@@H](C)C(=O)N[C@@H](C)C(=O)NC(C)(C)C(=O)N[C@@H](CCC(=O)O)C(=O)N[C@@H](Cc1ccccc1)C(=O)N[C@H](C(=O)N[C@@H](CC(N)=O)C(=O)N[C@@H](Cc1c[nH]c2ccccc12)C(=O)N[C@@H](CC(C)C)C(=O)N[C@@H](CC(C)C)C(=O)N[C@@H](C)C(=O)NCC(=O)NCC(=O)N1CCC[C@H]1C(=O)N[C@@H](CO)C(=O)N[C@@H](CO)C(=O)NCC(=O)N[C@@H](C)C(=O)N1CCC[C@H]1C(=O)N1CCC[C@H]1C(=O)N1CCC[C@H]1C(=O)N[C@@H](CO)C(=O)N[C@@H](CCCCN)C(N)=O)C(C)C` [Compound 109]: the EC50 in experiment [1] (EC50 GIP-R/nM, Table 3) is 10 to 100 nM; in experiment [1] (EC50 GIP-R/nM, Table 3A) it was 10 to 100 nM; in experiment [2] (EC50 GLP-1R/nM, Table 3), 1 to 10 nM; in experiment [2] (EC50 GLP-1R/nM, Table 3A) it was 1 to 10 nM. The Emax amounted to 36% in experiment [1] (Table 3), 36% in experiment [1] (Table 3A), 101% in experiment [2] (Table 3) and 101% in experiment [2] (Table 3A).
As to `CC[C@H](C)[C@H](NC(=O)[C@H](CO)NC(=O)[C@H](Cc1ccc(O)cc1)NC(=O)[C@H](CC(=O)O)NC(=O)[C@H](CO)NC(=O)[C@@H](NC(=O)[C@H](Cc1ccccc1)NC(=O)[C@@H](NC(=O)CNC(=O)[C@H](CCC(=O)O)NC(=O)CSCC(=O)NCCN1C(=O)[C@@H]2[C@H](C1=O)C2(C)C)[C@@H](C)O)[C@@H](C)O)C(=O)N[C@@H](Cc1ccc(O)cc1)C(=O)N[C@@H](CC(C)C)C(=O)N[C@@H](CC(=O)O)C(=O)N[C@@H](CCCCN)C(=O)N[C@@H](CCC(N)=O)C(=O)N[C@@H](C)C(=O)N[C@@H](C)C(=O)NC(C)(C)C(=O)N[C@@H](CCC(=O)O)C(=O)N[C@@H](Cc1ccccc1)C(=O)N[C@H](C(=O)N[C@@H](CC(N)=O)C(=O)N[C@@H](Cc1c[nH]c2ccccc12)C(=O)N[C@@H](CC(C)C)C(=O)N[C@@H](CC(C)C)C(=O)N[C@@H](C)C(=O)NCC(=O)NCC(=O)N1CCC[C@H]1C(=O)N[C@@H](CO)C(=O)N[C@@H](CO)C(=O)NCC(=O)N[C@@H](C)C(=O)N1CCC[C@H]1C(=O)N1CCC[C@H]1C(=O)N1CCC[C@H]1C(=O)N[C@@H](CO)C(=O)N[C@@H](CCCCN)C(N)=O)C(C)C` [Compound 110], the EC50 lay in the range of 10 to 100 nM in experiment [1] (EC50 GIP-R/nM, Table 3); 10 to 100 nM in experiment [1] (EC50 GIP-R/nM, Table 3A); 10 to 100 nM in experiment [2] (EC50 GLP-1R/nM, Table 3); 10 to 100 nM in experiment [2] (EC50 GLP-1R/nM, Table 3A). Moreover, the Emax in experiment [1] (Table 3) worked out at 33%; in experiment [1] (Table 3A), 33%; in experiment [2] (Table 3), 88%; in experiment [2] (Table 3A), 88%.
As for `CC[C@H](C)[C@H](NC(=O)[C@H](CO)NC(=O)[C@H](Cc1ccc(O)cc1)NC(=O)[C@H](CC(=O)O)NC(=O)[C@H](CO)NC(=O)[C@@H](NC(=O)[C@H](Cc1ccccc1)NC(=O)[C@@H](NC(=O)CNC(=O)[C@H](CCC(=O)O)NC(=O)CSCC(=O)NCCN1C(=O)CN(C)C1=O)[C@@H](C)O)[C@@H](C)O)C(=O)N[C@@H](Cc1ccc(O)cc1)C(=O)N[C@@H](CC(C)C)C(=O)N[C@@H](CC(=O)O)C(=O)N[C@@H](CCCCN)C(=O)N[C@@H](CCC(N)=O)C(=O)N[C@@H](C)C(=O)N[C@@H](C)C(=O)NC(C)(C)C(=O)N[C@@H](CCC(=O)O)C(=O)N[C@@H](Cc1ccccc1)C(=O)N[C@H](C(=O)N[C@@H](CC(N)=O)C(=O)N[C@@H](Cc1c[nH]c2ccccc12)C(=O)N[C@@H](CC(C)C)C(=O)N[C@@H](CC(C)C)C(=O)N[C@@H](C)C(=O)NCC(=O)NCC(=O)N1CCC[C@H]1C(=O)N[C@@H](CO)C(=O)N[C@@H](CO)C(=O)NCC(=O)N[C@@H](C)C(=O)N1CCC[C@H]1C(=O)N1CCC[C@H]1C(=O)N1CCC[C@H]1C(=O)N[C@@H](CO)C(=O)N[C@@H](CCCCN)C(N)=O)C(C)C` [Compound 112], the EC50 in experiment [1] (Table 3, read-out: EC50 GIP-R/nM) was in the range of 10 to 100 nM; in experiment [1] (Table 3A, read-out: EC50 GIP-R/nM) it was 10 to 100 nM; in experiment [2] (Table 3, read-out: EC50 GLP-1R/nM) it was 10 to 100 nM; in experiment [2] (Table 3A, read-out: EC50 GLP-1R/nM) it was 10 to 100 nM. The Emax at 1 µM in experiment [1] (read-out: (Emax) GIP-R at 1 μM, Table 3) is 26%; in experiment [1] (read-out: (Emax) GIP-R at 1 μM, Table 3A), 26%. The Emax in experiment [2] (Table 3) and in experiment [2] (Table 3A) was 94% throughout.
With `CC[C@H](C)[C@H](NC(=O)[C@H](CO)NC(=O)[C@H](Cc1ccc(O)cc1)NC(=O)[C@H](CC(=O)O)NC(=O)[C@H](CO)NC(=O)[C@@H](NC(=O)[C@H](Cc1ccccc1)NC(=O)[C@@H](NC(=O)CNC(=O)[C@H](CCC(=O)O)NC(=O)CSCC(=O)NCCN1C(=O)CC(C)CC1=O)[C@@H](C)O)[C@@H](C)O)C(=O)N[C@@H](Cc1ccc(O)cc1)C(=O)N[C@@H](CC(C)C)C(=O)N[C@@H](CC(=O)O)C(=O)N[C@@H](CCCCN)C(=O)N[C@@H](CCC(N)=O)C(=O)N[C@@H](C)C(=O)N[C@@H](C)C(=O)NC(C)(C)C(=O)N[C@@H](CCC(=O)O)C(=O)N[C@@H](Cc1ccccc1)C(=O)N[C@H](C(=O)N[C@@H](CC(N)=O)C(=O)N[C@@H](Cc1c[nH]c2ccccc12)C(=O)N[C@@H](CC(C)C)C(=O)N[C@@H](CC(C)C)C(=O)N[C@@H](C)C(=O)NCC(=O)NCC(=O)N1CCC[C@H]1C(=O)N[C@@H](CO)C(=O)N[C@@H](CO)C(=O)NCC(=O)N[C@@H](C)C(=O)N1CCC[C@H]1C(=O)N1CCC[C@H]1C(=O)N1CCC[C@H]1C(=O)N[C@@H](CO)C(=O)N[C@@H](CCCCN)C(N)=O)C(C)C` [Compound 113], the EC50 lay within 10 to 100 nM in experiment [1] (EC50 GIP-R/nM, Table 3); 10 to 100 nM in experiment [1] (EC50 GIP-R/nM, Table 3A); 10 to 100 nM in experiment [2] (EC50 GLP-1R/nM, Table 3); 10 to 100 nM in experiment [2] (EC50 GLP-1R/nM, Table 3A). In addition, the Emax in experiment [1] (Table 3) came to 52%; in experiment [1] (Table 3A), 52%; in experiment [2] (Table 3), 89%; in experiment [2] (Table 3A) it was 89%.
